Holding throughout (format): biochemical
Experiment [1] has as its target T1, PI3Kβ (Homo sapiens, UniProt P42338).
T1 construct: made in house
Kind of experiment: TR-FRET enzymatic activity assay, PI3Kβ. The note with it: for PI3Kγ/PI3Kβ ratio: ratio of IC50 values. As to the method: (§1) The compounds of formula (I) were characterized for their enzymatic activity against the PI3K isoforms. The activities were measured using a time-resolved fluorescence resonance energy transfer (TR-FRET) assay.
On the technique in general: Time-resolved FRET reads energy transfer from a long-lived donor to a nearby acceptor.

For experiment [2], the target named is T2, PI3Kγ (Homo sapiens, UniProt P48736).
T2 construct: made in house
The experiment is described as follows: TR-FRET enzymatic activity assay, PI3Kγ. To be noted: recombinant heterodimeric PI3Kγ 2 nM, 2× Km ATP, 30 minutes at 25°C. As to the method:
as §1

Experiment [3] deals with T3, PI3Kδ (Homo sapiens, UniProt O00329).
T3 construct: made in house
The experiment is described as follows: TR-FRET enzymatic activity assay, PI3Kδ. As to the method:
as §1

[4] abbreviates: recombinant heterodimeric PI3Kβ 25-50 pM, 2× Km ATP, 30 minutes at 25°C.
The mark [5] stands for this setting: recombinant heterodimeric PI3Kδ 25-50 pM, 2× Km ATP, 30 minutes at 25°C.

Read-outs that look alike come from different tables or passages of the source. Where only a bound is given, the exact number is not on record here.

A word on the IC50: it is the concentration needed to halve the response being measured.

T3 sequence (O00329 whole entry): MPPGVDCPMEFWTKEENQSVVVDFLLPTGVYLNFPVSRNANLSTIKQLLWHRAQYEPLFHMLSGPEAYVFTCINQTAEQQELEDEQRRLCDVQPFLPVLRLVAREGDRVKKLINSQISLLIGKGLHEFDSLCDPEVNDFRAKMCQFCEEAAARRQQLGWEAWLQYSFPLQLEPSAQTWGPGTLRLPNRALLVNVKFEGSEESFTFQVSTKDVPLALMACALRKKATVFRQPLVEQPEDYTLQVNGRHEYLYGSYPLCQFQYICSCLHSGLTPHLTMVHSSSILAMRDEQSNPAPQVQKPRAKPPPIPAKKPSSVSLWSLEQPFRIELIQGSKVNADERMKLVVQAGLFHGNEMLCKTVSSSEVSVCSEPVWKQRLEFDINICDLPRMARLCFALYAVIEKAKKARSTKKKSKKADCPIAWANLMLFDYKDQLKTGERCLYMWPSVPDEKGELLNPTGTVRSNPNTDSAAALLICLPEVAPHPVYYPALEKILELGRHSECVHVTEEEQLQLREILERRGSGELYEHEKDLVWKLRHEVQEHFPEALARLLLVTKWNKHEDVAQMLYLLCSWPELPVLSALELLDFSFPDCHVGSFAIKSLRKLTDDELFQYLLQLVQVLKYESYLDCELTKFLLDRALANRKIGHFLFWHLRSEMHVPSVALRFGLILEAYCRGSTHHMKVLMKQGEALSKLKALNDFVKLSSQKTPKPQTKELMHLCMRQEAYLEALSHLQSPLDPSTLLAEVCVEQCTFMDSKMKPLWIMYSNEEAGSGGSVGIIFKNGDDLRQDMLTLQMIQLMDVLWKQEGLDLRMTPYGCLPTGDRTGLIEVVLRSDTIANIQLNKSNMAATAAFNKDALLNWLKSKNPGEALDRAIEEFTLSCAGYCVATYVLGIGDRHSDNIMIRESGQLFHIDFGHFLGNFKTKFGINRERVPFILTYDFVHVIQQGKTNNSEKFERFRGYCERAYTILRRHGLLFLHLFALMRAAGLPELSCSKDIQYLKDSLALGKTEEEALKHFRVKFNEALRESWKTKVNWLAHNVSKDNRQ
T3 sequence (P27986 whole entry partner): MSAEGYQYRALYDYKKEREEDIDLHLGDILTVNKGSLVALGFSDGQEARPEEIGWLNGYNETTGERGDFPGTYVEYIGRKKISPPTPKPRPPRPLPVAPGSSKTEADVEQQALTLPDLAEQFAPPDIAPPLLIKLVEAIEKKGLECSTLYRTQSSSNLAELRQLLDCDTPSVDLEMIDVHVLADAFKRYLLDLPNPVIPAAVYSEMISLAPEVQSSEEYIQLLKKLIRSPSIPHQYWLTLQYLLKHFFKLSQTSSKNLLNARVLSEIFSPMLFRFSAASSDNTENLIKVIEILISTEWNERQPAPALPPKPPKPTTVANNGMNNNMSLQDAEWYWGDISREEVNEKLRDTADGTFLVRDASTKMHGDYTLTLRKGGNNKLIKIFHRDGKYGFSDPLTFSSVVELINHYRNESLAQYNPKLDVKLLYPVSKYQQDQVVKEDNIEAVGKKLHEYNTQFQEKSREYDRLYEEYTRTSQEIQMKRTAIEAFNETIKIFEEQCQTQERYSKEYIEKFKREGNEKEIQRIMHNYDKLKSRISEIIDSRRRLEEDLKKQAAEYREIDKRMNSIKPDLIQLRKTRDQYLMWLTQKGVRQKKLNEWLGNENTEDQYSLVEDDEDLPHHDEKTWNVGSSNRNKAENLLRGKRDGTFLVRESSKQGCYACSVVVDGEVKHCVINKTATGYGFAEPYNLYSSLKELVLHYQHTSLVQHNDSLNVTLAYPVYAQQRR
T1 sequence (P42338 whole entry): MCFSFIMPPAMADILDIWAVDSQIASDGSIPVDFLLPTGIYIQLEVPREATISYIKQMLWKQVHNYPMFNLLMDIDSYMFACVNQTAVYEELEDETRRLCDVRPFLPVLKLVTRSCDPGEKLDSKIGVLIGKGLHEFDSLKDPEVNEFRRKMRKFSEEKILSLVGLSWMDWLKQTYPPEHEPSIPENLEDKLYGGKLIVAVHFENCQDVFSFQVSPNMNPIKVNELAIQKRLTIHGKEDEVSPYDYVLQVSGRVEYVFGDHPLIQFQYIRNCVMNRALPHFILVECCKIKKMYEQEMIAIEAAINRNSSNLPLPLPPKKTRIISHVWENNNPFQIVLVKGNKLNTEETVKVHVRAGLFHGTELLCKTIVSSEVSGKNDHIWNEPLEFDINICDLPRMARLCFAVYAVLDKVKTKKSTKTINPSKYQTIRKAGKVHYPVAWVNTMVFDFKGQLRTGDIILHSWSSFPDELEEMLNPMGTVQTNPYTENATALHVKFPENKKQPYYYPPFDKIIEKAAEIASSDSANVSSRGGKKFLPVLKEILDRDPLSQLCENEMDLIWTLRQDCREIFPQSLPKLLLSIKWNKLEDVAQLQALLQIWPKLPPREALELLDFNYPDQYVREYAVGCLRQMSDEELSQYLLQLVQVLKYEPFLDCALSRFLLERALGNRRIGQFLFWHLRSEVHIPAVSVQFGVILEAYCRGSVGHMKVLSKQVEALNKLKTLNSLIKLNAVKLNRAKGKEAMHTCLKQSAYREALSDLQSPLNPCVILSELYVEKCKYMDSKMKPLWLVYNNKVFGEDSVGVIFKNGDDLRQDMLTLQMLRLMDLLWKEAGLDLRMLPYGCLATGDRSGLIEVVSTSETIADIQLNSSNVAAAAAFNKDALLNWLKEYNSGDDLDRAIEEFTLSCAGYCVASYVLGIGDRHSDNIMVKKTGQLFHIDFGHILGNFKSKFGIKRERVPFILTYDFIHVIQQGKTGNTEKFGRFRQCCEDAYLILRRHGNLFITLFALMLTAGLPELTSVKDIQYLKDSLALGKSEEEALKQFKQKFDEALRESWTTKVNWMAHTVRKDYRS
T1 sequence (P27986 whole entry partner): as the sequence (P27986 whole entry partner) above
T2 sequence (P48736 whole entry): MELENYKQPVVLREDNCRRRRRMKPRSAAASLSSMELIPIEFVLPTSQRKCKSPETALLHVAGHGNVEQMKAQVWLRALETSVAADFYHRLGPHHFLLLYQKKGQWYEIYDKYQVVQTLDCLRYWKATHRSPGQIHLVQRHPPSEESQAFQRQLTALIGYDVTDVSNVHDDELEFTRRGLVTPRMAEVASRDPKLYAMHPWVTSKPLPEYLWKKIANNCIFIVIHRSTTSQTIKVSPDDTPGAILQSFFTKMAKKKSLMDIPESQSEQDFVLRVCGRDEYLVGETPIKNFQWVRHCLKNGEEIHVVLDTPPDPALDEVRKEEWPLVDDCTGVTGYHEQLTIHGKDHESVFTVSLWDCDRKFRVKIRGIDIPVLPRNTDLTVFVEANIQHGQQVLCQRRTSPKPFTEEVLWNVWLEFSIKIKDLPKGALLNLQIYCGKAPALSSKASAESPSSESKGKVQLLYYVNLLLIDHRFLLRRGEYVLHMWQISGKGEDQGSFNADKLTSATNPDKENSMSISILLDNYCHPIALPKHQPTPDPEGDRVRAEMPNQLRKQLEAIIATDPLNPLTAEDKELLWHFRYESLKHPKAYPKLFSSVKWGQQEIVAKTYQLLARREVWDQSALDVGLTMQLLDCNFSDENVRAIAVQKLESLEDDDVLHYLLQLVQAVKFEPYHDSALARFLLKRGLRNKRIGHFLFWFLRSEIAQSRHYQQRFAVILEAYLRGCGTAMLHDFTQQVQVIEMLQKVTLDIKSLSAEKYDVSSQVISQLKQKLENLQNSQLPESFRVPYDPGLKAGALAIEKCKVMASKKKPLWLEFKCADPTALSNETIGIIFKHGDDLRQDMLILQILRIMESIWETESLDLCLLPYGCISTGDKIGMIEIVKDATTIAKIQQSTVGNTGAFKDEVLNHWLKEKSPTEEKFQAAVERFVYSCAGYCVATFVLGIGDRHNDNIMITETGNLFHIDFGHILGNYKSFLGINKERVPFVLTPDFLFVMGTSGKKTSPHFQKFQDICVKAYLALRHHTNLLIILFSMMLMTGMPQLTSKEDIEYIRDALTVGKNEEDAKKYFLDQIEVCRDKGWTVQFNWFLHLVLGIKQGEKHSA
T2 sequence (Q8WYR1 whole entry partner): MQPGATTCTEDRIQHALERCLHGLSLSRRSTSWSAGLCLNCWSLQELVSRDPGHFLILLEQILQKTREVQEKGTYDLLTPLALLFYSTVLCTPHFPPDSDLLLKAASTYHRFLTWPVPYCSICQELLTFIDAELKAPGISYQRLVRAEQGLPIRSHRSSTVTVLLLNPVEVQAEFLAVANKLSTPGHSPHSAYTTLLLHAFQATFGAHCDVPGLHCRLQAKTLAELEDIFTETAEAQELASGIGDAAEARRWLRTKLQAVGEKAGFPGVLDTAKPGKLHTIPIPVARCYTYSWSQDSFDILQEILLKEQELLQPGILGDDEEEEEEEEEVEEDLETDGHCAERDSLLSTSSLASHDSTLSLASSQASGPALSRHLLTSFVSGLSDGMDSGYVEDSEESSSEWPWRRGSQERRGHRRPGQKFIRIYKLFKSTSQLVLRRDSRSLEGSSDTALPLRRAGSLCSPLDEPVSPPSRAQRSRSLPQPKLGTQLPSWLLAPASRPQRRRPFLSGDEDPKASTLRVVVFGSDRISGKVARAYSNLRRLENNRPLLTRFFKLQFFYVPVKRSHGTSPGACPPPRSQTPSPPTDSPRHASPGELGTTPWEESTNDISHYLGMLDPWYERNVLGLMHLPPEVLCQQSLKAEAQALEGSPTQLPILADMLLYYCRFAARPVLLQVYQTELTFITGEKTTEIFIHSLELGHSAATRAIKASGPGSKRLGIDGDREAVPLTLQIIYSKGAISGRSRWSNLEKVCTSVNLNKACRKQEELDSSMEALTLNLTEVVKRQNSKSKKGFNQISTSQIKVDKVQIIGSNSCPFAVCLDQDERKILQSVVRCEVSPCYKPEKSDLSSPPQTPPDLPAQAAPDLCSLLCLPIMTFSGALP

For the compound `C[C@H](Nc1ncnc(N)c1C#N)c1nc2cccc(Cl)c2c(=O)n1C1CCCNC1` (stereo partly drawn) [Compound 83, 4-amino-6-(((1S)-1-(5-chloro-4-oxo-3-(piperidin-3-yl)-3,4-dihydroquinazolin-2-yl)ethyl)amino)pyrimidine-5-carbonitrile], the IC50 was 270 nM in experiment [1] (setting [4]), > 10000 nM in experiment [2] and 8 nM in experiment [3] (setting [5]).

For the compound `C[C@H](Nc1nc(N)nc(N)c1Cl)c1nc2c(F)ccc(Cl)c2c(=O)n1N1CCNCC1` [Compound 20, (S)-5-chloro-2-(1-((2,6-diamino-5-chloropyrimidin-4-yl)amino)ethyl)-8-fluoro-3-(piperazin-1-yl)quinazolin-4(3H)-one], the 50% inhibitory concentration (IC50) in experiment [1] (setting [4]) is 40 nM; in experiment [2] it was > 10000 nM; in experiment [3] (setting [5]), 20 nM.

As to `C[C@H](Nc1ncnc2[nH]cnc12)c1nc2cccc(Cl)c2c(=O)n1C1CCN(C)CC1` [Compound 120, (S)-2-(1-((9H-purin-6-yl)amino)ethyl)-5-chloro-3-(1-methylpiperidin-4-yl)quinazolin-4(3H)-one], the figures for the IC50 in experiment [1] (setting [4]), in experiment [2] and in experiment [3] (setting [5]) were 1200 nM, > 10000 nM and 14 nM, respectively.

For `CC[C@H](Nc1nc(N)nc(C)c1C#N)c1nc2cccc(Cl)c2c(=O)n1N1CCNCC1` [Compound 44, (S)-2-amino-4-((1-(5-chloro-4-oxo-3-(piperazin-1-yl)-3,4-dihydroquinazolin-2-yl)propyl)amino)-6-methylpyrimidine-5-carbonitrile], the IC50 in experiment [1] (setting [4]) stood at 2 nM; in experiment [2] it was 1800 nM; in experiment [3] (setting [5]), 1 nM.

On to `C[C@H](Nc1ncnc(N)c1C#N)c1nc2cccc(Cl)c2c(=O)n1C1CCCNCC1` (stereo partly drawn) [Compound 84, 4-amino-6-(((1S)-1-(3-(azepan-4-yl)-5-chloro-4-oxo-3,4-dihydroquinazolin-2-yl)ethyl)amino)pyrimidine-5-carbonitrile], for which the values for the IC50 in experiment [1] (setting [4]), in experiment [2] and in experiment [3] (setting [5]) were 32 nM, > 10000 nM and 2 nM, respectively.

For `C[C@H](Nc1nc(N)nc(N)c1C#N)c1nc2cccc(Cl)c2c(=O)n1N1CCN(Cc2ccccc2)CC1` [Compound 3, (S)-2,4-diamino-6-((1-(3-(4-benzylpiperazin-1-yl)-5-chloro-4-oxo-3,4-dihydroquinazolin-2-yl)ethyl)amino)pyrimidine-5-carbonitrile], the 50% inhibitory concentration (IC50) in experiment [1] (setting [4]) was 8 nM; in experiment [2] it was 580 nM; in experiment [3] (setting [5]), 12 nM.

Take `N#Cc1c(N)nc(N)nc1N[C@H](c1nc2c(F)ccc(Cl)c2c(=O)n1N1CCNCC1)C1CC1` [Compound 48, (S)-2,4-diamino-6-(((5-chloro-8-fluoro-4-oxo-3-(piperazin-1-yl)-3,4-dihydroquinazolin-2-yl)(cyclopropyl)methyl)amino)pyrimidine-5-carbonitrile]: the IC50 worked out at 3 nM in experiment [1] (setting [4]), 3300 nM in experiment [2] and 1 nM in experiment [3] (setting [5]).

As to `CC[C@H](Nc1nc(N)nc(C)c1C#N)c1nc2cccc(Cl)c2c(=O)n1N1CCN(Cc2ccc(F)cc2)CC1` [Compound 90, (S)-2-amino-4-((1-(5-chloro-3-(4-(4-fluorobenzyl)piperazin-1-yl)-4-oxo-3,4-dihydroquinazolin-2-yl)propyl)amino)-6-methylpyrimidine-5-carbonitrile], the IC50 in experiment [1] (setting [4]) was 52 nM; in experiment [2], 2000 nM; in experiment [3] (setting [5]) it was 23 nM.

For the compound `C[C@H](Nc1ncnc(N)c1C#N)c1nc2cccc(Cl)c2c(=O)n1N1CCN(C)CC1` [Compound 5, (S)-4-amino-6-((1-(5-chloro-3-(4-methylpiperazin-1-yl)-4-oxo-3,4-dihydroquinazolin-2-yl)ethyl)amino)pyrimidine-5-carbonitrile], the IC50 is 190 nM in experiment [1] (setting [4]), > 10000 nM in experiment [2] and 19 nM in experiment [3] (setting [5]).

For `C[C@H](Nc1nc(N)nc(N)c1C#N)c1nc2cccc(Cl)c2c(=O)n1N1CCN(C2COC2)CC1` [Compound 97, (S)-2,4-diamino-6-((1-(5-chloro-3-(4-(oxetan-3-yl)piperazin-1-yl)-4-oxo-3,4-dihydroquinazolin-2-yl)ethyl)amino)pyrimidine-5-carbonitrile], the concentration for half-maximal inhibition (IC50) amounted to 93 nM in experiment [1] (setting [4]), 460 nM in experiment [2] and 15 nM in experiment [3] (setting [5]).

Turning to `C[C@H](Nc1ncnc(N)c1C#N)c1nc2cccc(Cl)c2c(=O)n1N1CCC(N)C1` (stereo partly drawn) [Compound 130, 4-amino-6-(((1S)-1-(3-(3-aminopyrrolidin-1-yl)-5-chloro-4-oxo-3,4-dihydroquinazolin-2-yl)ethyl)amino)pyrimidine-5-carbonitrile], the concentration for half-maximal inhibition (IC50) was 62 nM in experiment [1] (setting [4]), > 10000 nM in experiment [2] and 1 nM in experiment [3] (setting [5]).

With `C[C@H](Nc1ncnc(N)c1C#N)c1nc2cccc(Cl)c2c(=O)n1C1CCNCC1` [Compound 86, (S)-4-amino-6-((1-(5-chloro-4-oxo-3-(piperidin-4-yl)-3,4-dihydroquinazolin-2-yl)ethyl)amino)pyrimidine-5-carbonitrile], the IC50 was 83 nM in experiment [1] (setting [4]), > 10000 nM in experiment [2] and 3 nM in experiment [3] (setting [5]).

Regarding `C[C@H](Nc1nc(N)nc(N)c1C#N)c1nc2cccc(Cl)c2c(=O)n1C1CCNCC1` [Compound 26, (S)-2,4-diamino-6-((1-(5-chloro-4-oxo-3-(piperidin-4-yl)-3,4-dihydroquinazolin-2-yl)ethyl)amino)pyrimidine-5-carbonitrile], the IC50 in experiment [1] (setting [4]) is 2 nM; in experiment [2], > 10000 nM; in experiment [3] (setting [5]), 2 nM.

Turning to `C[C@H](Nc1ncnc2cccnc12)c1nc2cccc(Cl)c2c(=O)n1C1CCCNCC1` (stereo partly drawn) [Compound 81, 3-(azepan-4-yl)-5-chloro-2-((S)-1-(pyrido[3,2-d]pyrimidin-4-ylamino)ethyl)quinazolin-4(3H)-one], the IC50 in experiment [1] (setting [4]) was 520 nM; in experiment [2], > 10000 nM; in experiment [3] (setting [5]), 35 nM.

Consider `C[C@H](Nc1nc(N)nc(N)c1Cl)c1nc2cccc(Cl)c2c(=O)n1N1CCN(CC(F)(F)F)CC1` [Compound 108, (S)-5-chloro-2-(1-((2,6-diamino-5-chloropyrimidin-4-yl)amino)ethyl)-3-(4-(2,2,2-trifluoroethyl)piperazin-1-yl)quinazolin-4(3H)-one], for which the values for the IC50 in experiment [1] (setting [4]), in experiment [2] and in experiment [3] (setting [5]) were 6100 nM, > 10000 nM and 170 nM, respectively.

`C[C@H](Nc1ncnc2scnc12)c1nc2cccc(Cl)c2c(=O)n1C1CCNCC1` [Compound 18, (S)-5-chloro-3-(piperidin-4-yl)-2-(1-(thiazolo[5,4-d]pyrimidin-7-ylamino)ethyl)quinazolin-4(3H)-one]: the results for the IC50 in experiment [1] (setting [4]), in experiment [2] and in experiment [3] (setting [5]) were 63 nM, > 10000 nM and 9 nM, respectively.

On to `N#Cc1c(N)nc(N)nc1N[C@H](c1nc2cccc(Cl)c2c(=O)n1N1CCN(Cc2ccccc2)CC1)C1CC1` [Compound 93, (S)-2,4-diamino-6-(((3-(4-benzylpiperazin-1-yl)-5-chloro-4-oxo-3,4-dihydroquinazolin-2-yl)(cyclopropyl)methyl)amino)pyrimidine-5-carbonitrile], for which the IC50 in experiment [1] (setting [4]) worked out at 48 nM; in experiment [2], 1300 nM; in experiment [3] (setting [5]) it was 18 nM.

Consider `C[C@H](Nc1nc(N)nc(N)c1C#N)c1nc2cccc(Cl)c2c(=O)n1N1CCNC2(CC2)C1` [Compound 7, (S)-2,4-diamino-6-((1-(5-chloro-4-oxo-3-(4,7-diazaspiro[2.5]octan-7-yl)-3,4-dihydroquinazolin-2-yl)ethyl)amino)pyrimidine-5-carbonitrile], for which the results for the IC50 in experiment [1] (setting [4]), in experiment [2] and in experiment [3] (setting [5]) were 2 nM, 860 nM and 0.8 nM, respectively.

Turning to `C[C@H](Nc1nc(N)nc(N)c1C#N)c1nc2cccc(Cl)c2c(=O)n1-c1ccccc1` [Compound X, (S)-2,4-diamino-6-((1-(5-chloro-4-oxo-3-phenyl-3,4-dihydroquinazolin-2-yl)ethyl)amino)pyrimidine-5-carbonitrile, reference compound], the PI3Kγ/PI3Kβ ratio in experiment [1] is listed as 0.6; in experiment [1] (as stated in b147) it was “less than 1 fold”. For the same compound, the IC50 was 11 nM in experiment [1] (setting [4]), 7 nM in experiment [2] and 0.2 nM in experiment [3] (setting [5]).

For `C[C@H](NC(=O)c1nccnc1N)c1nc2cccc(Cl)c2c(=O)n1N1CCNCC1` [Compound 56, (S)-3-amino-N-(1-(5-chloro-4-oxo-3-(piperazin-1-yl)-3,4-dihydroquinazolin-2-yl)ethyl)pyrazine-2-carboxamide], the IC50 in experiment [1] (setting [4]) was 21 nM; in experiment [3] (setting [5]) it was 230 nM.

Turning to `C[C@H](Nc1nc(N)nc(N)c1C#N)c1nc2cccc(Cl)c2c(=O)n1N1CCNCC1` [Compound 57, (S)-2,4-diamino-6-((1-(5-chloro-4-oxo-3-(piperazin-1-yl)-3,4-dihydroquinazolin-2-yl)ethyl)amino)pyrimidine-5-carbonitrile], the IC50 in experiment [2] is 710 nM.

As to `C[C@H](Nc1nc(N)nc(N)c1C#N)c1nc2c(Cl)ccc(Cl)c2c(=O)n1N1CCNCC1` [Compound 53, (S)-2,4-diamino-6-((1-(5,8-dichloro-4-oxo-3-(piperazin-1-yl)-3,4-dihydroquinazolin-2-yl)ethyl)amino)pyrimidine-5-carbonitrile], the IC50 in experiment [1] is 27 nM; in experiment [1] (setting [4]), 4 nM; in experiment [3], 6 nM; in experiment [3] (setting [5]) it was 3 nM.

On to `Cc1nc(N)nc(N[C@@H](C)c2nc3cccc(Cl)c3c(=O)n2[C@@H]2CCCNCC2)c1C#N` [Compound 11, 2-amino-4-(((S)-1-(3-((R)-azepan-4-yl)-5-chloro-4-oxo-3,4-dihydroquinazolin-2-yl)ethyl)amino)-6-methylpyrimidine-5-carbonitrile], for which the IC50 in experiment [2] is > 10000 nM.

Turning to `Cc1nc(N)nc(N[C@@H](C)c2nc3cccc(Cl)c3c(=O)n2[C@H]2CCCNCC2)c1C#N` [Compound 10, 2-amino-4-(((S)-1-(3-((S)-azepan-4-yl)-5-chloro-4-oxo-3,4-dihydroquinazolin-2-yl)ethyl)amino)-6-methylpyrimidine-5-carbonitrile], the IC50 in experiment [2] was > 10000 nM.

These data come from patent EP3154958B1, “PHOSPHATIDYLINOSITOL 3-KINASE INHIBITORS” (Gilead Sciences, Inc., priority 2014, dated 2015).
